Test system: patients with post-operative dental pain
Experiment: Single-center, randomized, two-stage, parallel-group double-blind clinical study of single-dose efficacy and safety in post-operative dental pain
Type: in vivo, human
Settings: ibuprofen 400 mg, caffeine 100 mg
Experimental: Clinical trials are performed in patients using the tablets produced according to example 1 and using the following study design:
Secondary goal: Evaluation of the efficacy and safety of multiple doses of the fixed combination compared with ibuprofen alone over a post-operative time period of 5 days (study stage 2).
Male and female patients between the ages of 18 and 55 years, scheduled for the extraction of 3 to 4 unsound wisdom teeth, with at least 2 extracted molars were recruited; the baseline of dental pain intensity must be at least moderate on a verbal evaluation scale and at least 5 on a numerical evaluation scale ranging from 0 to 10.
Following surgery, one tablet every 6-8 hours for 5 days has been administered.
The time-weighted sum of pain relief (PAR) and the difference in pain intensity (PID) from 0 to 8 hours (SPRID0-8H)
Secondary Endpoint • The time-weighted sum of PAR and PID from 0 to 2 hours (SPRID0-2H) • Duration of pain relief • Time to significant pain relief
The pain intensity (PI) was evaluated in a diary before administration and at 0.25, 0.5, 0.75, 1, 1.5, 2, 3, 4, 5, 6, 7 and 8 hours after the first dose of the study medication using an 11-point numerical rating scale (NPRS) from 0=“no pain” to 10=“worst possible pain”.
The pain relief (PAR) beginning from pain onset was evaluated in a patient diary using a 5-point rating scale (VRS) (0=no pain relief; 1=a little pain relief; 2=some pain relief; 3=much pain relief; 4=complete pain relief) at the same time points as for the PI evaluation.
As soon as a patient needed an emergency medication or a second dose of the medication within less than 8 hours, PI and PAR were evaluated before the emergency medication or second dose was administered.
The time-weighted sum of pain relief (PAR) and the pain intensity difference (PID) relative to baseline between 0 and 8 hours is determined as follows:
PID=PI at baseline−PI at the specific time point (here, higher PID values represent greater benefit for the patient).
Higher values of the SPRID0-8 h likewise indicate greater benefit for the patient.

[1] = Kaplan-Meyer analysis, single dose

With CC(C)Cc1ccc(C(C)C(=O)O)cc1 (racemic) [Ibuprofen, (+/−) 2-(p-isobutylphenyl)-propionic acid] the “Mean time to obtain relief (time to significant/meaningful pain relief)” value [1] was 2.5 h, the “Median duration of action” value [1] was 7.1 h and the “Adjusted Mean SPRID0-2h value” (time-weighted sum of PAR and PID 0 to 2 hours after single dose) was 6.990. The “Adjusted Mean SPRID0-8h value” (time-weighted sum of pain relief (PAR) and pain intensity difference (PID) 0 to 8 hours after single dose, study stage 1) was 40.165.

Reference: patent publication US20170252346A1, “PHARMACEUTICAL COMPOSITION FOR THE TREATMENT OF ACUTE TOOTH OR JAW PAIN” (SANOFI-AVENTIS DEUTSCHLAND GMBH, priority 2014, published 2017)
